The target in this experiment is hGLP-1R (Homo sapiens, UniProt P43220). Description: Cell agonistic activity at GLP-1 receptor (Example 7). Format: cell-based.

The results in this text go back to patent US20240239863A1, “GIP RECEPTOR AGONIST AND USE THEREOF” (HANGZHOU ZHONGMEIHUADONG PHARMACEUTICAL CO., LTD., priority 2022, published 2024).

Non-standard residues stand in square brackets, D forms with d. Residues, ends and D or L forms follow the SMILES beside them. Aib = CC(C)(N)C(=O)O A value given as a limit tells only on which side of the number the result lay.

Chain of hGLP-1R (P43220 24-463): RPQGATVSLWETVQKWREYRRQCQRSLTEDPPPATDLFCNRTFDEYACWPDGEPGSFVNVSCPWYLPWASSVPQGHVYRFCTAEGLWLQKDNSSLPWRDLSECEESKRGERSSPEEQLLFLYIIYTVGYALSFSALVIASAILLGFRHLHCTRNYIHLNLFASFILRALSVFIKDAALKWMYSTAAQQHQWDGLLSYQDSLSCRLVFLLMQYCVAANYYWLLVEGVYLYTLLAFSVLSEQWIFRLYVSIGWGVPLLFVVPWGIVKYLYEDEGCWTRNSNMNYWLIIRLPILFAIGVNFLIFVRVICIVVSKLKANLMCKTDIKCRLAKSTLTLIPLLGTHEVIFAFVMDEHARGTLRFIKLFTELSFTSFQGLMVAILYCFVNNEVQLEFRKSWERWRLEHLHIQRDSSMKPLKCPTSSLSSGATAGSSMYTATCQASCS

On to `CC[C@H](C)[C@H](NC(=O)[C@H](CCC(=O)O)NC(=O)[C@H](CC(=O)O)NC(=O)[C@H](CC(C)C)NC(=O)C(C)(C)NC(=O)[C@@H](NC(=O)[C@H](CO)NC(=O)[C@H](Cc1ccc(O)cc1)NC(=O)[C@H](CC(=O)O)NC(=O)[C@H](CO)NC(=O)[C@@H](NC(=O)[C@H](Cc1ccccc1)NC(=O)[C@@H](NC(=O)CNC(=O)[C@H](CCC(=O)O)NC(=O)C(C)(C)NC(=O)[C@@H](N)Cc1ccc(O)cc1)[C@@H](C)O)[C@@H](C)CC)[C@@H](C)CC)C(=O)N[C@@H](Cc1c[nH]cn1)C(=O)N[C@@H](CCC(N)=O)C(=O)N[C@@H](CCCCN)C(=O)N[C@@H](CC(=O)O)C(=O)N[C@@H](Cc1ccccc1)C(=O)N[C@H](C(=O)N[C@@H](CCCCN)C(=O)N[C@@H](Cc1c[nH]c2ccccc12)C(=O)N[C@@H](CC(C)C)C(=O)N[C@@H](CC(C)C)C(=O)N[C@@H](C)C(=O)N[C@@H](CCC(N)=O)C(=O)N[C@@H](CCCCN)C(=O)NCC(=O)O)C(C)C` [Sequence 2] (H-Y[Aib]EGTFISDYSI[Aib]LDEIHQKDFVKWLLAQKG-OH; N-terminus and C-terminus assumed), for which the EC50 (usually the midpoint of the concentration-response curve) was above 100 pM.

In the case of `CC[C@H](C)[C@H](NC(=O)[C@H](CO)NC(=O)[C@H](Cc1ccc(O)cc1)NC(=O)[C@H](CC(=O)O)NC(=O)[C@H](CO)NC(=O)[C@@H](NC(=O)[C@H](Cc1ccccc1)NC(=O)[C@@H](NC(=O)CNC(=O)[C@H](CCC(=O)O)NC(=O)C(C)(C)NC(=O)[C@@H](N)Cc1ccc(O)cc1)[C@@H](C)O)[C@@H](C)CC)C(=O)N[C@@H](C)C(=O)N[C@@H](CC(C)C)C(=O)N[C@@H](CC(=O)O)C(=O)N[C@@H](CCCNC(=N)N)C(=O)N[C@H](C(=O)N[C@@H](Cc1c[nH]cn1)C(=O)N[C@@H](CCC(N)=O)C(=O)N[C@@H](CCC(N)=O)C(=O)N[C@@H](CC(=O)O)C(=O)N[C@@H](Cc1ccccc1)C(=O)N[C@H](C(=O)N[C@@H](CCCCN)C(=O)N[C@@H](Cc1c[nH]c2ccccc12)C(=O)N[C@@H](CC(C)C)C(=O)N[C@@H](CC(C)C)C(=O)N[C@@H](C)C(=O)N[C@@H](CCC(N)=O)C(=O)N[C@@H](CCCNC(=N)N)C(=O)NCC(=O)O)C(C)C)[C@@H](C)CC` [Sequence 13] (H-Y[Aib]EGTFISDYSIALDRIHQQDFVKWLLAQRG-OH; N-terminus and C-terminus assumed), the EC50 is above 100 pM.

The molecule `CC[C@H](C)[C@H](NC(=O)[C@H](CO)NC(=O)[C@H](Cc1ccc(O)cc1)NC(=O)[C@H](CC(=O)O)NC(=O)[C@H](CO)NC(=O)[C@@H](NC(=O)[C@H](Cc1ccccc1)NC(=O)[C@@H](NC(=O)CNC(=O)[C@H](CCC(=O)O)NC(=O)C(C)(C)NC(=O)[C@@H](N)Cc1ccc(O)cc1)[C@@H](C)O)[C@@H](C)CC)C(=O)N[C@@H](C)C(=O)N[C@@H](CC(C)C)C(=O)N[C@@H](CC(=O)O)C(=O)N[C@@H](CCCNC(=N)N)C(=O)N[C@@H](CC(C)C)C(=O)N[C@@H](Cc1c[nH]cn1)C(=O)N[C@@H](CCC(N)=O)C(=O)N[C@@H](CCC(N)=O)C(=O)N[C@@H](CC(=O)O)C(=O)N[C@@H](Cc1ccccc1)C(=O)N[C@H](C(=O)N[C@@H](CCCCN)C(=O)N[C@@H](Cc1c[nH]c2ccccc12)C(=O)N[C@@H](CC(C)C)C(=O)N[C@@H](CC(C)C)C(=O)N[C@@H](C)C(=O)N[C@@H](CCC(N)=O)C(=O)N[C@@H](CCCNC(=N)N)C(=O)NCC(=O)O)C(C)C` [Sequence 17] (H-Y[Aib]EGTFISDYSIALDRLHQQDFVKWLLAQRG-OH; N-terminus and C-terminus assumed) returned an EC50 above 100 pM.

As for `CC[C@H](C)[C@H](NC(=O)[C@H](CO)NC(=O)[C@H](Cc1ccc(O)cc1)NC(=O)[C@H](CC(=O)O)NC(=O)[C@H](CO)NC(=O)[C@@H](NC(=O)[C@H](Cc1ccccc1)NC(=O)[C@@H](NC(=O)CNC(=O)[C@H](CCC(=O)O)NC(=O)C(C)(C)NC(=O)[C@@H](N)Cc1ccc(O)cc1)[C@@H](C)O)[C@@H](C)CC)C(=O)N[C@@H](C)C(=O)N[C@@H](CC(C)C)C(=O)N[C@@H](CC(=O)O)C(=O)N[C@@H](CCCCN)C(=O)N[C@H](C(=O)N[C@@H](Cc1c[nH]cn1)C(=O)N[C@@H](CCC(N)=O)C(=O)N[C@@H](CCC(=O)O)C(=O)N[C@@H](CC(=O)O)C(=O)N[C@@H](Cc1ccccc1)C(=O)N[C@H](C(=O)N[C@@H](CCCCN)C(=O)N[C@@H](Cc1c[nH]c2ccccc12)C(=O)N[C@@H](CC(C)C)C(=O)N[C@@H](CC(C)C)C(=O)N[C@@H](C)C(=O)N[C@@H](CCC(N)=O)C(=O)N[C@@H](CCCCN)C(=O)NCC(=O)O)C(C)C)[C@@H](C)CC` [Sequence 3] (H-Y[Aib]EGTFISDYSIALDKIHQEDFVKWLLAQKG-OH; N-terminus and C-terminus assumed), the EC50 was above 100 pM.

The molecule `CC[C@H](C)[C@H](NC(=O)[C@H](CO)NC(=O)[C@H](Cc1ccc(O)cc1)NC(=O)[C@H](CC(=O)O)NC(=O)[C@H](CO)NC(=O)[C@@H](NC(=O)[C@H](Cc1ccccc1)NC(=O)[C@@H](NC(=O)CNC(=O)[C@H](CCC(=O)O)NC(=O)C(C)(C)NC(=O)[C@@H](N)Cc1ccc(O)cc1)[C@@H](C)O)[C@@H](C)CC)C(=O)N[C@@H](C)C(=O)N[C@@H](CC(C)C)C(=O)N[C@@H](CC(=O)O)C(=O)N[C@@H](CCCNC(=N)N)C(=O)N[C@H](C(=O)N[C@@H](Cc1c[nH]cn1)C(=O)N[C@@H](CCC(N)=O)C(=O)N[C@@H](CCC(=O)O)C(=O)N[C@@H](CC(=O)O)C(=O)N[C@@H](Cc1ccccc1)C(=O)N[C@H](C(=O)N[C@@H](CC(N)=O)C(=O)N[C@@H](Cc1c[nH]c2ccccc12)C(=O)N[C@@H](CC(C)C)C(=O)N[C@@H](CC(C)C)C(=O)N[C@@H](C)C(=O)N[C@@H](CCC(N)=O)C(=O)N[C@@H](CCCCN)C(=O)NCC(=O)O)C(C)C)[C@@H](C)CC` [Sequence 12] (H-Y[Aib]EGTFISDYSIALDRIHQEDFVNWLLAQKG-OH; N-terminus and C-terminus assumed) showed an EC50 above 100 pM.

`CC[C@H](C)[C@H](NC(=O)[C@H](CO)NC(=O)[C@H](Cc1ccc(O)cc1)NC(=O)[C@H](CC(=O)O)NC(=O)[C@H](CO)NC(=O)[C@@H](NC(=O)[C@H](Cc1ccccc1)NC(=O)[C@@H](NC(=O)CNC(=O)[C@H](CCC(=O)O)NC(=O)C(C)(C)NC(=O)[C@@H](N)Cc1ccc(O)cc1)[C@@H](C)O)[C@@H](C)CC)C(=O)N[C@@H](C)C(=O)N[C@@H](CC(C)C)C(=O)N[C@@H](CC(=O)O)C(=O)N[C@@H](CCCCN)C(=O)N[C@H](C(=O)N[C@@H](Cc1c[nH]cn1)C(=O)N[C@@H](CCC(N)=O)C(=O)N[C@@H](CCC(N)=O)C(=O)N[C@@H](CC(=O)O)C(=O)N[C@@H](Cc1ccccc1)C(=O)N[C@H](C(=O)N[C@@H](CC(N)=O)C(=O)N[C@@H](Cc1c[nH]c2ccccc12)C(=O)N[C@@H](CC(C)C)C(=O)N[C@@H](CC(C)C)C(=O)N[C@@H](C)C(=O)N[C@@H](CCC(N)=O)C(=O)N[C@@H](CCCNC(=N)N)C(=O)NCC(=O)O)C(C)C)[C@@H](C)CC` [Sequence 7] (H-Y[Aib]EGTFISDYSIALDKIHQQDFVNWLLAQRG-OH; N-terminus and C-terminus assumed): the EC50 is above 100 pM.

As to `CC[C@H](C)[C@H](NC(=O)[C@H](CO)NC(=O)[C@H](Cc1ccc(O)cc1)NC(=O)[C@H](CC(=O)O)NC(=O)[C@H](CO)NC(=O)[C@@H](NC(=O)[C@H](Cc1ccccc1)NC(=O)[C@@H](NC(=O)CNC(=O)[C@H](CCC(=O)O)NC(=O)C(C)(C)NC(=O)[C@@H](N)Cc1ccc(O)cc1)[C@@H](C)O)[C@@H](C)CC)C(=O)N[C@@H](C)C(=O)N[C@@H](CC(C)C)C(=O)N[C@@H](CC(=O)O)C(=O)N[C@@H](CCCCN)C(=O)N[C@@H](CC(C)C)C(=O)N[C@@H](Cc1c[nH]cn1)C(=O)N[C@@H](CCC(N)=O)C(=O)N[C@@H](CCC(N)=O)C(=O)N[C@@H](CC(=O)O)C(=O)N[C@@H](Cc1ccccc1)C(=O)N[C@H](C(=O)N[C@@H](CC(N)=O)C(=O)N[C@@H](Cc1c[nH]c2ccccc12)C(=O)N[C@@H](CC(C)C)C(=O)N[C@@H](CC(C)C)C(=O)N[C@@H](C)C(=O)N[C@@H](CCC(N)=O)C(=O)N[C@@H](CCCNC(=N)N)C(=O)NCC(=O)O)C(C)C` [Sequence 8] (H-Y[Aib]EGTFISDYSIALDKLHQQDFVNWLLAQRG-OH; N-terminus and C-terminus assumed), the EC50 was above 100 pM.

`CC[C@H](C)[C@H](NC(=O)[C@H](CCCCN)NC(=O)[C@H](CC(=O)O)NC(=O)[C@H](CC(C)C)NC(=O)C(C)(C)NC(=O)[C@@H](NC(=O)[C@H](CO)NC(=O)[C@H](Cc1ccc(O)cc1)NC(=O)[C@H](CC(=O)O)NC(=O)[C@H](CO)NC(=O)[C@@H](NC(=O)[C@H](Cc1ccccc1)NC(=O)[C@@H](NC(=O)CNC(=O)[C@H](CCC(=O)O)NC(=O)C(C)(C)NC(=O)[C@@H](N)Cc1ccc(O)cc1)[C@@H](C)O)[C@@H](C)CC)[C@@H](C)CC)C(=O)N[C@@H](Cc1c[nH]cn1)C(=O)N[C@@H](CCC(N)=O)C(=O)N[C@@H](CCC(=O)O)C(=O)N[C@@H](CC(=O)O)C(=O)N[C@@H](Cc1ccccc1)C(=O)N[C@H](C(=O)N[C@@H](CCCCN)C(=O)N[C@@H](Cc1c[nH]c2ccccc12)C(=O)N[C@@H](CC(C)C)C(=O)N[C@@H](CC(C)C)C(=O)N[C@@H](C)C(=O)N[C@@H](CCC(N)=O)C(=O)N[C@@H](CCCCN)C(=O)NCC(=O)O)C(C)C` [Sequence 1] (H-Y[Aib]EGTFISDYSI[Aib]LDKIHQEDFVKWLLAQKG-OH; N-terminus and C-terminus assumed): the EC50 was above 100 pM.

In turn, `CC[C@H](C)[C@H](NC(=O)[C@H](CO)NC(=O)[C@H](Cc1ccc(O)cc1)NC(=O)[C@H](CC(=O)O)NC(=O)[C@H](CO)NC(=O)[C@@H](NC(=O)[C@H](Cc1ccccc1)NC(=O)[C@@H](NC(=O)CNC(=O)[C@H](CCC(=O)O)NC(=O)C(C)(C)NC(=O)[C@@H](N)Cc1ccc(O)cc1)[C@@H](C)O)[C@@H](C)CC)C(=O)N[C@@H](C)C(=O)N[C@@H](CC(C)C)C(=O)N[C@@H](CC(=O)O)C(=O)N[C@@H](CCCNC(=N)N)C(=O)N[C@H](C(=O)N[C@@H](Cc1c[nH]cn1)C(=O)N[C@@H](CCC(N)=O)C(=O)N[C@@H](CCC(N)=O)C(=O)N[C@@H](CC(=O)O)C(=O)N[C@@H](Cc1ccccc1)C(=O)N[C@H](C(=O)N[C@@H](CC(N)=O)C(=O)N[C@@H](Cc1c[nH]c2ccccc12)C(=O)N[C@@H](CC(C)C)C(=O)N[C@@H](CC(C)C)C(=O)N[C@@H](C)C(=O)N[C@@H](CCC(N)=O)C(=O)N[C@@H](CCCCN)C(=O)NCC(=O)O)C(C)C)[C@@H](C)CC` [Sequence 14] (H-Y[Aib]EGTFISDYSIALDRIHQQDFVNWLLAQKG-OH; N-terminus and C-terminus assumed) yielded an EC50 above 100 pM.
